Assay [1] has as its system sAPPα release from 7WD10 cells. The assay is described as follows: AlphaLISA sAPPα release assay (pilot screen). In kind it is cell-based. The note with it: 5 μM, 7WD10 cells, 24 h. How it is done:
Pilot screen of AlphaLISA sAPPα release assay. 8 μL of assay media (DMEM supplemented with 10% FBS and 1× Penicillin/Streptomycin) containing 20,000 cells were added to all wells of the assay plate, except column 1 where only media was added. Plates were incubated for 4 h at 37° C., 5% CO2, 95% RH after which 80 nL of test compounds in DMSO or DMSO alone were added to respective wells using a pin tool device (VP Scientific, San Diego). After 24 h of incubation at 37° C., 5% CO2, 95% RH, sAPPα AlphaLISA beads were added in 10 μL of buffer, equilibrated for 1 h, and AlphaLISA signal was measured using a Biotek H4 Synergy microplate reader (Biotek Inc). Three parameters were calculated on a per-plate basis: (a) the signal-to-background ratio (S/B); (b) the coefficient for variation [CV; CV=(standard deviation/mean)×100)] for all compound test wells; and (c) the Z′-factor [31]. Nominally active compounds from the pilot screen were determined using mean plus 3 times the standard deviation (Mean+3SD) was used as the cut-off.

For assay [2], the system named is sAPPα in supernatants of 7WD10 cells. The assay is described as follows: Western blot sAPPα release assay, 7WD10 cells. In kind it is cell-based. How it is done:
(2). To ascertain that hits identified as a result of AlphaLISA assay are not due to artifacts of the detection system, the sAPPα levels were measured by Western blots as a secondary assay downstream of primary HTS to confirm hits or discard artifacts of the AlphaLISA assay. The assay was performed using a range of concentrations of hit compounds (10-5,000 nM). A hit compound named thiazole piperazine #244 (THPI-244) and THPI-326 induced dose-dependent increase of sAPPα in supernatants of 7WD10 cells (FIG. 1.3). […] Since compound THPI-244 increased sAPPα levels more than THPI-326, we focused on THPI-244 for further validation.
Western blot sAPPα release assay. 7WD10 cells were grown in 6-well plates and treated with test compounds and SAHA (vorinostat) at several concentrations in duplicate wells. After 24 h of drug exposure, the conditioned media (CM) was collected, centrifuged to remove cell debris and subjected to SDS-PAGE electrophoresis. sAPPα (6E10, mouse IgG from IBL America ltd) was detected using indicated antibody. To detect APP-FL holoprotein and C-terminal fragments (CTFs, CT15 antibody), the cells were lysed using lysis buffer (1% NP40) with complete protease inhibitor mix (Sigma) supplemented with sodium vanadate and microcystine. Samples were subjected to SDS-PAGE, transferred and immunoblotted with indicated antibodies and detected by enhanced chemiluminescence method. Quantification of Western blot signals was done using ImageJ software.

The subject of assay [3] is sAPPα release, fibroblasts derived from AD patients. The assay is described as follows: sAPPα ELISA, AD fibroblasts. Type of assay: cell-based, human. As to conditions: 24 h. How it is done:
(1). […] Therefore, we first used fibroblasts derived from AD patients (AG06263C, Coriell Cell repository, supported by NINDS/NIH) and exposed to THPI-244 for 24 h and measured sAPPα release by ELISA as done above for NT2 cells. […] We also confirmed dose-dependent effect of THPI-244 on sAPPα levels in human primary neurons transiently transfected with APP751 with Swedish mutation which is trafficked differently from WT APP and releases more sAPPα. Human neurons were grown on specially coated glass coverslips (cat # GG-18-PDL, NeuVitro, Germany). We could reproducibly achieve nearly 30% transfection efficiency using a nanoparticle based transfection reagent called Neuromag (cat # NM150299, OZ Biosciences, France).
Background: In an ELISA, binding on a coated surface is turned into a signal by an enzyme label.

The test system of assay [4] is sAPPα levels in conditioned medium of NT2 cells. The assay is described as follows: sAPPα immunoblot, NT2 cells with or without TrkA inhibitor. Type of assay: cell-based, human. As to conditions: 24 h. How it is done: (§1) (3). THPI-244 increases TrkA receptor levels independent of protein kinase C (PKC). Next to clarify whether increased sAPPα levels depends on increased TrkA activation, NT2 cells were treated with THPI-244 with or without TrkA inhibitor (cat # GW 441756, Tocris Bioscience) at 50 nM final concentration. After 24 h, sAPPα levels were quantified from the conditioned medium by immunoblots. […] We next wanted to address whether increased TrkA protein levels by THPI-244 depends on PKC since PKC activators are well-known to induce sAPPα secretion (Etcheberringaray, R., et al., 2004, PNAS, 101, 11141-11146). NT2 cells were similarly treated with THPI-244 at 100 nM with or without PKC inhibitor (GF 109203, cat #0741, Tocris Bioscience) at 1.0 nM and TrkA protein levels were quantified by immunoblots as shown in FIG. 1.10 (right). […] Thus increased sAPPα level by THPI-244 is through upregulation of TrkA receptor independent of PKC.
Background: Immunoblotting shows a protein as a band on a membrane.

The test system of assay [5] is TrkA protein levels. In words: TrkA protein immunoblot, NT2 cells with or without PKC inhibitor. Type of assay: cell-based, human. How it is done:
as §1

The test system of assay [6] is TrkA. The assay is described as follows: Mouse brain lysate immunoblot, TrkA. In kind it is in vivo. The note with it: i.p. 100 mg/kg for 5 days, brain lysates. How it is done: FIGS. 9.2A and B illustrate that THPI-244 increases TrkA and sAPPα in the mouse brain. FIG. 9.2A illustrates that THPI-244 was administered to mice by i.p. injections at 100 mg/kg body weight for 5 days and the brain lysates were subjected to immunoblots. Specific antibodies were used to detect TrkA and sAPPα. […] Data are mean±SEM, n=3*, p<0.05, ***, p<0.001.

Assay [7] has as its target T1, TrkA dimer (Homo sapiens, UniProt P04629).
T1 construct: endogenous in cells; host or cells: NT2 cells (stably expressing APP751; no TrkA transfection described)
In words: TrkA dimerization immunoblot, NT2 cells. Type of assay: cell-based. The note with it: 48 h. How it is done:
FIGS. 9.4A and B illustrates that THPI-244 increases TrkA dimerization in NT2 cells. FIG. 9.4A illustrates that NT2 cells were treated with THPI-244 at 100 and 200 nM for 48 h and the cell lysates were subjected to immunoblots. TrkA monomer was detected at 140 kDa and dimer at 280 kDA. […] Data are mean±SEM, n=4, **, p<0.01, ***, p<0.001 by ANOVA.

The test system of assay [8] is sAPPα. In words: sAPPα increasing activity of THPI-244 analogs. Type of assay: cell-based. From the text:
(§2) The following table illustrates Chemical structures and properties of THPI-244 analogs selected out of 37 analogs, and each have significant sAPPα increasing activity. Toxicity is the minimum dose for toxicity.

In assay [9] the test system is TrkA. The assay is described as follows: TrkA increase by THPI-244 analogs. In kind it is cell-based.
From the text: as §2

T1 sequence (P04629 33-796): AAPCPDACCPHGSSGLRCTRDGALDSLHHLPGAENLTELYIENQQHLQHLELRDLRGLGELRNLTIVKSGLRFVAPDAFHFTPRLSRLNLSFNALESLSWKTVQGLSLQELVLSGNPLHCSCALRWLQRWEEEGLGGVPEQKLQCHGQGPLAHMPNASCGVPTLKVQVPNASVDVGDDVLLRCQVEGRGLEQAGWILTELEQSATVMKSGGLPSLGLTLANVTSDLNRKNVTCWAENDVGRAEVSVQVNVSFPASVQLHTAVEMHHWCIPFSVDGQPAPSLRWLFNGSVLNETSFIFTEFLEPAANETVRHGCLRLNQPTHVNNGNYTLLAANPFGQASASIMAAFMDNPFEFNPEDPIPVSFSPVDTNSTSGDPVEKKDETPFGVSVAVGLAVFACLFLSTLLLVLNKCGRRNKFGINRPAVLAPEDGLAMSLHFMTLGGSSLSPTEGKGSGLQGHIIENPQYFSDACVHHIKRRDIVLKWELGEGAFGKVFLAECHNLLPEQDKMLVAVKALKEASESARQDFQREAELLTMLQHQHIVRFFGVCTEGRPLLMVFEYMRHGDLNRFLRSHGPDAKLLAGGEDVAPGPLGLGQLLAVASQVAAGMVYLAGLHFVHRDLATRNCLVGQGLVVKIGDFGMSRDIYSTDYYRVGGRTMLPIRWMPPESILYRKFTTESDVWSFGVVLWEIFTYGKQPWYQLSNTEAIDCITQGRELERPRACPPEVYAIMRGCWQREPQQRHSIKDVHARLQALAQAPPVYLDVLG

As to `O=C(Cc1ccccc1)N[C@H](CNc1nc(CN2CCN(C(=O)Cc3ccccc3)CC2)cs1)c1ccccc1` [THPI-244], in assay [1], the “increase of Alpha signal (sAPPα release)” value is given as roughly 2 fold. Moreover, the “levels of APP-FL” value in assay [2] (CHO cells, Western blot) is recorded as “no change”. For the same compound, the “increase of sAPPα over untreated control cells” value in assay [2] (as low as 10 nM, 7WD10 supernatants) was determined as 2 fold. Further, in [3], the “concentration from which sAPPα increase is significant” value was 50 nM. Besides, the figures for the sAPPα levels in assay [4] (THPI-244 100 nM with TrkA inhibitor GW 441756 50 nM) and in [4] (THPI-244 100 nM) were 132% and 245%, respectively. For the same compound, the TrkA protein levels in [5] (THPI-244 100 nM) was found to be 197%; in assay [5] (THPI-244 100 nM with PKC inhibitor GF 109203 1.0 nM), 192%. In addition, the “increase of TrkA” value in [6] came out at 78%. The “increase of TrkA dimer” value in [7] (100 nM) turned out to be 82%; in assay [7] (200 nM), 134%. Besides, in assay [8], the “% sAPPα ↑” value is given as 257%. For the same compound, the “% TrkA ↑” value in assay [9] came to 99%.

The record behind these values is patent US20150315179A1, “COMPOUNDS AND METHODS OF TREATING NEUROLOGICAL DISORDERS” (Torrey Pines Institute For Molecular Studies, priority 2014, published 2015).
